Consider five compounds from PMC8951750, “In Vitro Anticancer and Cancer-Preventive Activity of New Triterpene Glycosides from the Far Eastern Starfish Solaster pacificus” (Marine Drugs, 2022).

Like-named read-outs stand apart in the source and are kept apart here.

Test [1] has as its system JB6 Cl41 cells. Kind of test: Soft agar assay, EGF-induced neoplastic cell transformation. The class given is cell-based, mouse. The following applies: Mus musculus, JB6 Cl41, 336 h. As for the experimental part:
(§1) JB6 Cl41 cells (2.4 × 10^4) were exposed to epidermal growth factor (EGF) (1 ng/mL) or phorbol 12-myristate 13-acetate (TPA) (10 ng/mL) and treated either with DMSO (control) or the triterpene glycosides 1–9 from S. pacificus (0.1, 0.5, and 1 µM) in 1 mL of 0.3% basal medium Eagle (BME) agar containing 10% FBS, 2 mM L-glutamine, and 25 µg/mL gentamicin (agar mix). The cultures were maintained in a humidified atmosphere with 5% CO2 at 37 °C for 14 days, and the cell’s colonies were scored using a microscope, Motic AE 20 (XiangAn, Xiamen, China), and the ImageJ software bundled with 64-bit Java 1.8.0_112 (NIH, Bethesda, MD, USA). To determine the effect of investigated compounds on neoplastic cell transformation induced by ionizing radiation (X-ray or UVB), JB6 Cl41 cells (3 × 10^5/dish) were seeded in 60 mm dishes and cultured for 24 h at 37 °C in 5% CO2 incubator. Then, the cells were exposed to X-rays (X-ray system XPERT 80 (KUB Technologies, Inc, Milford, CT, USA)) at dose of 0.5 Gy or UVB (wavelengths below 312 nm) (Bio-Link UV irradiation system, Vilber, France) at dose of 0.3 J/cm^2 three times a week for 3 weeks. Irradiated JB6 Cl41 cells (2.4 × 10^4) were treated either with DMSO (control) or the triterpene glycosides 1–9 from S. pacificus (0.1, 0.5, and 1 µM) in 1 mL of agar mix. The cultures were maintained in a humidified atmosphere with 5% CO2 at 37 °C for 14 days, and the cell’s colonies were scored using a microscope, Motic AE 20 (XiangAn, Xiamen 361101, China), and the ImageJ software bundled with 64-bit Java 1.8.0_112 (NIH, Bethesda, MD, USA).

For test [2], the system named is Human erythrocytes (O(I)+). Put plainly: Hemolysis assay. Format: cell-based. The following applies: 1 h, 37 °C, PBS pH 7.4. The method, then: Human erythrocytes (O(I)+) were obtained from Vladivostok blood transfusion station. Erythrocytes were centrifuged with PBS (pH 7.4) for 5 min at 4 °C by 450× g on a LABOFUGE 400R (Heraeus, Hanau, Germany) centrifuge three times. Then, the residue of erythrocytes was resuspended in ice-cold PBS (pH 7.4) to a final optical density of 2.0 at 700 nm and kept on ice. For the hemolytic assay, 180 µL of erythrocyte suspension was mixed with 20 µL of Cucumarioside A2-2 (positive control) and investigated compounds at concentrations range of 0.1, 0.5, 1, 5, 10 µM in V-bottom 96-well plates. After 1 h of incubation at 37 °C, plates were centrifuged at 900× g for 10 min on an LMC-3000 (Biosan, Riga, Latvia) laboratory centrifuge. Then, we carefully selected 100 µL of supernatant and transferred it to new flat plates, respectively. Lysis of erythrocytes was determined by measuring the concentration of hemoglobin in the supernatant with a microplate photometer Multiskan FC (Thermo Fisher Scientific, Waltham, MA, USA) at 570 nm. The effective dose causing 50% of erythrocytes hemolysis (ED50) was calculated using the computer program SigmaPlot 10.0. All experiments were made in triplicate, p < 0.01.

The test system of test [3] is JB6 Cl41 cells. Kind of test: Soft agar assay, X-ray-induced neoplastic cell transformation. The class given is cell-based, mouse. The following applies: Mus musculus, JB6 Cl41, 504 h. The method, then: as §1
Test [4] deals with human melanoma cells SK-MEL-2. Put plainly: Cell viability, MTS assay, SK-MEL-2. The following applies: Homo sapiens, SK-MEL-2, 24 h. Format: cell-based. The method, then: (§2) MTS assay was used to measure the cell viability of tested normal and cancer cells. Cells were seeded into 96-well plates (“Jet Biofil”, Guangzhou, China) at density of 1.0 × 10^4/200 µL for 24 h at 37 °C in a 5% CO2 incubator. Then, cell monolayer was treated either with DMSO (control) or various concentrations of the triterpene glycosides 1–9 from S. pacificus (0.1, 0.5, 2.5, 12.5, 62.5 µM) in fresh appropriate culture medium for 24 h. Subsequently, the cells were incubated with 15 µL of 3-(4,5-dimethylthiazol-2-yl)-5-(3-carboxymethoxyphenyl)-2-(4-sulfophenyl)-2H-tetrazolium (MTS reagent) (“Promega”, Madison, WI, USA) for 3 h, and the absorbance of each well was measured at 490/630 nm using Power Wave XS microplate reader (“BioTek”, Wynusky, VT, USA). The concentration at which the compounds exert half of their maximal inhibitory effect on cell viability (IC50) was calculated by the AAT-Bioquest® online calculator [39]. The selectivity index (SI) was calculated as described previously using the following formula SI = IC50 of the compounds in normal cell (JB6 Cl41)/IC50 of the same compounds in human melanoma cell lines (SK-MEL-2, SK-MEL-28, or RPMI-7951).

Test [5] has as its system JB6 Cl41 cells. Put plainly: Soft agar assay, UVB-induced neoplastic cell transformation. The class given is cell-based, mouse. The following applies: compound 0.1 µM, UVB 0.3 J/cm^2 three times a week for 3 weeks, soft agar. As for the experimental part: as §1
The next test has as its system SK-MEL-2 cells. Kind of test: Soft agar assay, colony formation of cancer cells. Format: cell-based, human. The following applies: compound 0.1 µM, 14 days. The method, then:
SK-MEL-2 cells (2.4 × 10^4) were treated either with DMSO (control) or the triterpene glycosides 1–9 from S. pacificus (0.1 µM) in 1 mL of agar mix. After 14 days, colonies of cancer cells were scored as described above.

Test [6] has as its system JB6 Cl41 cells. Kind of test: Soft agar assay, TPA-induced neoplastic cell transformation. The class given is cell-based, mouse. The following applies: Mus musculus, JB6 Cl41, 336 h. The method, then:
as §1

For test [7], the system named is human melanoma cells SK-MEL-28. Put plainly: Cell viability, MTS assay, SK-MEL-28. The following applies: for IC50: Homo sapiens, SK-MEL-28, 24 h; for SI (selectivity index) SK-MEL-28: IC50 JB6 Cl41 / IC50 SK-MEL-28. Format: cell-based. The method, then: as §2
In test [8] the test system is human melanoma cells RPMI-7951. Put plainly: Cell viability, MTS assay, RPMI-7951. The class given is cell-based. The following applies: for IC50: Homo sapiens, RPMI-7951, 24 h. As for the experimental part: as §2
The test system of test [9] is non-cancerous mouse epidermal cells JB6 Cl41. Put plainly: Cell viability, MTS assay, JB6 Cl41. Format: cell-based. The following applies: Mus musculus, JB6 Cl41, 24 h. The method, then:
as §2

For test [10], the system named is colorectal carcinoma HT-29 cells. The following applies: non-toxic concentration of 0.5 μM; cited from earlier work.
Test [11] deals with breast cancer MDA-MB-231 cells. The following applies: non-toxic concentration of 0.5 μM; cited from earlier work.
The test system of another test is melanoma RPMI-7951 cells. The following applies: non-toxic concentration of 0.5 μM; cited from earlier work.

With `C=C(C)C1C2CC3(C)C4=CCC5C(C)(C)C(OC6OCC(O)C(O)C6OC6OC(C)C(OC7OC(CO)C(O)C(OC8OC(CO)C(O)C(OC)C8O)C7O)C(O)C6OC6OCC(O)C(O)C6O)CCC5(C)C4CCC13C(=O)O2` [Compound 7, 3β-O-{3-O-methyl-β-D-glucopyranosyl-(1→3)-β-D-glucopyranosyl-(1→4)-[β-D-xylopyranosyl-(1→2)]-β-D-quinovopyranosyl-(1→2)-β-D-xylopyranosyl}-23,24,25,26,27-pentanor-5α-lanosta-7,20(22)-diene-18(16)-lactone], the inhibition at 0.1 µM is 20% in the test with JB6 Cl41 cells [1] (read-out: inhibition of EGF-induced neoplastic transformation of JB6 Cl41 cells, compound 0.1 µM, EGF 1 ng/mL, soft agar, 2 weeks, vs positive control); less than 15% with JB6 Cl41 cells [3] (read-out: inhibition of X-ray-induced cell transformation (JB6 Cl41 colonies formation), compound 0.1 µM, X-rays 0.5 Gy three times a week for 3 weeks, soft agar); 33% with JB6 Cl41 cells [6] (read-out: inhibition of TPA-induced neoplastic transformation of JB6 Cl41 cells, compound 0.1 µM, TPA 10 ng/mL, soft agar, 2 weeks, vs positive control). Moreover, the “ED50, effective dose causing 50% of erythrocytes hemolysis” value in test [2] is on record as 4.07 ± 0.10 µM. Moreover, the IC50 in test [4] (read-out: IC50, cell viability SK-MEL-2, MTS assay, 24 h) was 5.6 ± 0.1 µM; in [7] (read-out: IC50, cell viability SK-MEL-28, MTS assay, 24 h) it was 23 ± 0.07 µM; in test [8] (read-out: IC50, cell viability RPMI-7951, MTS assay, 24 h), 31.4 ± 0.1 µM; in [9] (read-out: IC50, cell viability JB6 Cl41, MTS assay, 24 h, normal cells) it was 8.7 ± 0.07 µM. Moreover, in the test with JB6 Cl41 cells [5], the “inhibition of UVB-induced neoplastic cell transformation (decrease of colonies number)” value is on record as “not effective”. In addition, the “decrease of colonies number of SK-MEL-2 cells (colony formation)” value in the test with SK-MEL-2 cells was determined as 15%. Also, the “SI (selectivity index) SK-MEL-28” value in [7] came out at 0.3. Moreover, the “SI (selectivity index) RPMI-7951” value in test [8] (IC50 JB6 Cl41 / IC50 RPMI-7951) was determined as 0.25.
As for `C=C(C)C1C2CC3(C)C4=CCC5C(C)(C)C(OC6OCC(O)C(O)C6OC6OC(C)C(OC7OC(CO)C(O)C(O)C7O)C(O)C6OC6OCC(O)C(O)C6O)CCC5(C)C4CCC13C(=O)O2` [Compound 8, 3β-O-{β-D-glucopyranosyl-(1→4)-[β-D-xylopyranosyl-(1→2)]-β-D-quinovopyranosyl-(1→2)-β-D-xylopyranosyl}-23,24,25,26,27-pentanor-5α-lanosta-7,20(22)-diene-18(16)-lactone], the inhibition at 0.1 µM in the test with JB6 Cl41 cells [1] (compound 0.1 µM, EGF 1 ng/mL, soft agar, 2 weeks, vs positive control, read-out: inhibition of EGF-induced neoplastic transformation of JB6 Cl41 cells) is 10%; in the test with JB6 Cl41 cells [3] (compound 0.1 µM, X-rays 0.5 Gy three times a week for 3 weeks, soft agar, read-out: inhibition of X-ray-induced cell transformation (JB6 Cl41 colonies formation)), less than 15%; in the test with JB6 Cl41 cells [6] (compound 0.1 µM, TPA 10 ng/mL, soft agar, 2 weeks, vs positive control, read-out: inhibition of TPA-induced neoplastic transformation of JB6 Cl41 cells), 20%. For the same compound, the “ED50, effective dose causing 50% of erythrocytes hemolysis” value in [2] came to 6.16 ± 0.05 µM. In addition, the IC50 was greater than 50 µM in test [4] (MTS assay, 24 h, read-out: IC50, cell viability SK-MEL-2); 42 ± 0.4 µM in [7] (MTS assay, 24 h, read-out: IC50, cell viability SK-MEL-28); greater than 50 µM in test [8] (MTS assay, 24 h, read-out: IC50, cell viability RPMI-7951); 32.8 ± 2.8 µM in test [9] (MTS assay, 24 h, normal cells, read-out: IC50, cell viability JB6 Cl41). Besides, the “inhibition of UVB-induced neoplastic cell transformation (decrease of colonies number)” value with JB6 Cl41 cells [5] is “not effective”. The “decrease of colonies number of SK-MEL-2 cells (colony formation)” value in the test on SK-MEL-2 cells stood at 3%. In addition, the “SI (selectivity index) SK-MEL-28” value in test [7] is on record as 0.8.
For the compound `CO[C@@H]1[C@@H](O)[C@H](O[C@@H]2[C@@H](O)[C@H](O[C@H]3[C@H](O)[C@@H](O[C@@H]4OC[C@@H](O)[C@H](O)[C@H]4O)[C@H](O[C@H]4[C@H](O[C@H]5CC[C@]6(C)[C@@H]7CCC89C(=O)O[C@@](C)(/C=C\C=C(C)C)[C@H]8[C@@H](OC(C)=O)C[C@@]9(C)C7=CC[C@H]6C5(C)C)OC[C@@H](O)[C@@H]4O)O[C@@H]3C)O[C@H](CO)[C@H]2O)OC[C@H]1O` (some centres unmarked) [cucumarioside C1], the “suppression of colony formation of HT-29 cells” value (shortened to “suppression … of HT-29 cells”) in test [10] was “almost completely suppressed”. The “suppression of colony formation of MDA-MB-231 cells” value (from here on “suppression … of MDA-MB-231 cells”) in [11] is listed as “almost completely suppressed”. Besides, the “suppression of colony formation of RPMI-7951 cells” value (from here on “suppression … of RPMI-7951 cells”) with melanoma RPMI-7951 cells is “almost completely suppressed”.
Turning to `COC1C(O)COC(OC2C(O)C(CO)OC(OC3C(C)OC(OC4C(OC5CCC6(C)C7CCC89C(=O)OC(C)(/C=C/C=C(C)C)C8C(OC(C)=O)CC9(C)C7=CCC6C5(C)C)OCC(O)C4O)C(OC4OCC(O)C(O)C4O)C3O)C2O)C1O` (centres unmarked) [cucumarioside C2], the “suppression … of HT-29 cells” value in [10] was “almost completely suppressed”. For the same compound, the “suppression … of MDA-MB-231 cells” value in test [11] was “almost completely suppressed”. Moreover, the “suppression … of RPMI-7951 cells” value with melanoma RPMI-7951 cells is “almost completely suppressed”.
pacificusoside C: in [10], the “suppression … of HT-29 cells” value is “almost completely suppressed”. The “suppression … of MDA-MB-231 cells” value in [11] is reported as “almost completely suppressed”. Further, the “suppression … of RPMI-7951 cells” value in the test with melanoma RPMI-7951 cells is listed as “almost completely suppressed”.
